What was measured:
[1] = system: several mammalian cell types; conditions: cited from earlier work
neonatal cardiomyocytes = assay: Mitosox mitochondrial superoxide in Angiotensin II-stimulated neonatal cardiomyocytes (flow cytometry); type: cell-based, mouse; conditions: NAC 0.5 mM, Angiotensin II 1 μM for 3 hours, Mitosox fluorescence
Experimental: Ventricles from mouse neonates younger than 72 hours will be dissected, minced, and enzymatically digested with Blendzyme 4 (45 mg/mL, Roche). After enzymatic digestion, cardiomyocytes will be enriched using differential pre-plating for 2 hours, and seeded on fibronectin-coated culture dishes for 24 hours in DMEM (Gibco) with 20% Fetal Bovine Serum (Sigma) and 25 μM Arabinosylcytosine (Sigma). Cardiomyocytes will be stimulated with Angiotensin II (1 μM) for 3 hours in serum-free DMEM containing 0.5% insulin transferrin-selenium (Sigma), 2 mM glutamine, and 1 mg/mL BSA. […] Samples will be analyzed using excitation/emission of 488/625 nm by flow cytometry. Flow data will be analyzed using FCS Express (De Novo Software, Los Angeles, Calif., U.S.A.), and presented as histogram distributions of Mitosox fluorescence intensity.

Row | Compound | penetration of the plasma membrane [1] | effect on the level of mitochondrial ROS after Ang II (neonatal cardiomyocytes)
1 | 2′,6′-Dmt-D-Arg-Phe-Lys-NH2 | readily penetrates the plasma membrane of several mammalian cell types in an energy-independent manner | –
2 | CC(=O)N[C@@H](CS)C(=O)O [N-acetyl cysteine] | – | not show any effect

— patent US20190023738A1, “THERAPEUTIC COMPOSITIONS INCLUDING PHENAZINE-3-ONE AND PHENOTHIAZINE-3-ONE DERIVATIVES AND USES THEREOF” (Stealth BioTherapeutics Corp, priority 2015, published 2019)
